Results on one molecule are retold here after patent publication US12344599B2, “Prodigiosin analogs and methods of use” (Institute For Cancer Research, priority 2016, dated 2025).

The test system of data set [1] is γ-H2AX in HT29 and SW480 cells. Briefly: γ-H2AX DNA damage marker, western blot and immunofluorescence staining. It is filed as cell-based, human. The protocol:
After treatment, protein lysates were collected for Western blot analysis. A total of […] of protein was used for SDS-PAGE. After primary and secondary antibody incubations, the signal was detected by a chemiluminescence detection kit, imaged by Syngene (Imgen Technologies). Antibodies for PUMA (for IHC), p53 (Santa Cruz Biotechnology), caspase 8, cleaved caspase 8, caspase 9, caspase 3, cleavage PARP, eIF2α, p-eIF2α (Ser51), CHOP, ATF4, DR5, FOXO3a, p-FOXO3a (Ser253), NF-κB p65, p-NF-κB p65 (Ser536), c-Jun, p-c-Jun (Ser63), JNK, p-JNK (Thr183/Tyr185), PUMA (for WB), c-Myc, phosphor-S62-cMyc (Cell Signaling Technology), Noxa, p21 (Calbiochem), p73 (Bethyl laboratories Inc), Ran (BD Biosciences), […] (Sigma).
A total of 5×10^4 cells were seeded in each well of 8-well chamber slides. After treatment, cells were fixed and permeabilized by methanol:acetone (1:1) for 20 minutes at −20° C. Fixed cells were blocked by 2% BSA for 1 hour, followed by primary antibody incubation for 1 hours and Cy3-conjuated secondary antibody incubation for 1 hour at room temperature. After washing, cells were stained with DAPI for 10 minutes at room temperature. Cells were mounted, and examined by fluorescence microscopy.
DNA damage induces the p53 pathway and leads to cell apoptosis. To study whether the p53 pathway restoration by compound PG3-Oc is due to DNA damage, the uptake and localization of PG3-Oc was investigated in cells. PG3-Oc and prodigiosin are red fluorescent compounds, and their localization in live cells can be monitored by fluorescence microscopy. PG3-Oc and prodigiosin rapidly entered cells within 2 hours of incubation and remained in the cytosol at the 8-hour time point in HT29 and SW480 cells (FIG. 46). […] Baldino, et al. reported that prodigiosin localized to the cytoplasm, but not within the nucleus, and no γ-H2AX signal was detected in A549 cancer cells (Baldino et al., Bioorg Med Chem Lett, 2006, 16, 701-704). […]
A general note: A western blot detects proteins with antibodies after separation by electrophoresis.

In a further data set the test system is H1975. Briefly: CellTiterGlo cell viability assay, H1975. It is filed as cell-based. To be noted: Homo sapiens, NCI-H1975; H1975, NSCLC, p53 R273H, 72 hours. The protocol: • 1) Cell lines: HT29, SW480, DLD-1, HCT116, and p53-null HCT116 cells, H1975, MDA-MD-231, U251, FaDu, CAL-27, PANC-1, Aspc-1, and MRC5 were obtained from the ATCC and cultured as recommended. Cells were regularly authenticated by bioluminescence, growth, and morphologic observation. The cells were routinely examined for Mycoplasma and all cell lines underwent STR authentication. • 2) Western blotting: After treatment, protein lysates were collected for Western blot analysis. 15 μg of protein was used for SDS-PAGE. After primary and secondary antibody incubations, the signal was detected by chemiluminescent detection kit, imaged by Syngene (Imgen Technologies). […] The cell viability was assessed by CellTiterGlo bioluminescent cell proliferation assay (Promega), following the manufacturer's protocol. Bioluminescence imaging was measured using the IVIS imager. Percentage of cell viability (mean±SEM) at each dose was calculated against the respective DMSO control. The IC50 values were determined from the sigmoidal dose-response curves using GraphPad Prims4. • 4) Caspase activity assay: Cells were seeded in 96-well plate (1×10^4 cells/well). […] The caspase 3/7 activity was assessed by Caspase-Glo® 3/7 Assay kit (Promega), following the manufacturer's protocol. Bioluminescence imaging was measured using the IVIS imager. […]

One may read the IC50 as the point on the concentration scale where inhibition reaches its midpoint. A low value points to inhibition by little substance.

Each structure is given as a SMILES string.

Turning to `CCCCCCCCOC(=O)CCc1c(C)[nH]c(/C=C2\N=C(c3ccc[nH]3)C=C2OC)c1C` [PG3-Oc, Octyl (Z)-3-(5-((4′-methoxy-1H,5′H-[2,2′-bipyrrol]-5′-ylidene)methyl)-2,4-dimethyl-1H-pyrrol-3-yl)propanoate], in data set [1], the “induction of 65-H2AX (DNA damage marker) / foci formation” value was “did not induce”. Further, in the data set on H1975, half-maximal inhibition (IC50) required 190 nM.
